Experimental data taken from patent publication US20250205226A1, “USE OF N-(3-(4-(3-(DIISOBUTYLAMINO)PROPYL)PIPERAZIN-1-YL)PROPYL)-1H-BENZO[D]IMIDAZOL-2-AMINE SALTS AND SOLVATES THEREOF FOR THE TREATMENT OF SENSORY NEURON DISEASES” (ALZPROTECT, priority 2022, published 2025).
Read-outs that look alike come from different tables or passages of the source.

Test system: primary culture of rat sensory neurons and Schwann cells
Format: cell-based
Conditions: for Effect on SN neurite network after cisplatin injury / Effect on SN survival as compared to the cisplatin condition: 3 nM to 100 nM, with cisplatin 10 μg/mL injury; for Survival of SNs (number of MAP-2 positive SNs), mean survival / Total neurite network (MAP-2), mean length: percentage of control, 24 h
Protocol: Primary sensory neurons (SN) and Schwann cells (SC) were cultured as previously described in Cancer Chem. Pharmacol. 2008 November;62 (6): 995-1007. Briefly, pregnant female rats of 15 days gestation (Rats Wistar; Janvier Labs France) were killed using a deep anesthesia with CO2 chamber and a cervical dislocation. Then, fetuses were collected and immediately placed in ice-cold L15 Leibovitz medium with a 2% penicillin (10,000 U/mL) and streptomycin (10 mg/mL) solution (PS) and 1% bovine serum albumin (BSA). DRG from spinal cord were treated for 20min at 37° C. with a trypsin-EDTA solution at a final concentration of 0.05% trypsin and 0.02% EDTA. The dissociation was stopped by addition of Dulbecco's modified Eagle's medium (DMEM) with 4.5 g/L of glucose, containing DNAse I grade II (final concentration 0.5 mg/mL) and 10% fetal calf serum (FCS). Cells were mechanically dissociated through the tip of a 10 mL pipette. Cells were then centrifuged at 515× g for 10 min at 4° C. DMEM F12 with a 1% solution of N2 supplement, 2 mmol/L of L-glutamine, 2% of PS solution, NGF (5 ng/ml) and NT3 (5 ng/ml). Cells were seeded at a density of 15,000 per well in 96-well plates pre-coated with poly-L-lysine and cultured at 37° C. in an air (95%)-CO2 (5%) incubator. […] Cells were washed twice in PBS. Cell membranes were permeabilized and non-specific sites were blocked with a solution of PBS containing 0.1% of saponin and 1% FCS for 15 min at room temperature. Then, cells were incubated for 2 h with a mouse monoclonal antibody anti-microtubule associated protein 2 (MAP-2) at dilution of 1/400 in PBS containing 1% fetal calf serum and 0.1% of saponin. This antibody binds specifically MAP-2 present in cell bodies and neurites of all SNs. […] Nuclei of neurons were labeled by a fluorescent marker (Hoechst solution). For each condition, 30 pictures (representative of 90% of the well area) per well were automatically taken using ImageXpress (Molecular Devices) with 20× magnification. All images were taken under the same conditions (exposition time, gain and laser intensity). Analysis of different endpoints was automatically performed using Custom Module Editor (Molecular Devices). The endpoints were: • Survival of SNs (number of MAP-2 positive SNs) • Total neurite network (MAP-2): total length of neurites of SNs (expressed in μm) All values are expressed as mean +/−SEM. Statistical analysis was performed by one-way ANOVA, followed by PLSD Fisher test.

Compound | Effect on SN neurite network after cisplatin injury | Effect on SN survival as compared to the cisplatin condition | Survival of SNs (number of MAP-2 positive SNs), mean survival (10 nM (maximal effect) with cisplatin 10 μg/mL injury, FIG. 8A) | Total neurite network (MAP-2), mean length (10 nM (maximal effect) with cisplatin 10 μg/mL injury, FIG. 8B) | Survival of SNs (number of MAP-2 positive SNs), mean survival (30 nM (maximal effect) with cisplatin 10 μg/mL injury, FIG. 7A) | Total neurite network (MAP-2), mean length (30 nM (maximal effect) with cisplatin 10 μg/mL injury, FIG. 7B)
N-(3-(4-(3-(diisobutylamino)propyl)piperazin-1-yl)propyl)-^1H-benzo[d]imidazol-2-amine sesqui-succinate salt [sesqui-succinate salt Form 1] | able to protect the neurite network from cisplatin damage | positive and significant effect on survival | ~77% | ~80% | – | –
CC(C)CN(CCCN1CCN(CCCNc2nc3ccccc3[nH]2)CC1)CC(C)C.O=S(=O)(O)O.O=S(=O)(O)O [N-(3-(4-(3-(diisobutylamino)propyl)piperazin-1-yl)propyl)-1H-benzo[d]imidazol-2-amine di-sulphate] | able to improve the neurite network after cisplatin injury | positive and significant effect on survival | – | – | 80% | 83%
